# Measurements published in US4610879A (priority 1984, dated 1986).
# Experiments:
# [1] = system: human plasma clot; assay: Plasma clot lysis, human plasma; format: biochemical; conditions: plasmin 1.08 caseinolytic units per milliliter, after twenty-four hours
# [2] = system: rabbit plasma clot; assay: Plasma clot lysis, rabbit plasma; format: biochemical; conditions: plasmin 1.08 caseinolytic units per milliliter, after twenty-four hours
# [3] = system: fibrin clots; assay: Preliminary in vitro evaluation against fibrin clots in plasma; format: biochemical; conditions: 0.1 mgm purified venom enzyme, or plasmin
# [4] = system: azocasein; conditions: pure plasmin, for comparison; cited from earlier work
# [5] = biological target: fibrinolytic enzyme from Southern Copperhead venom (Agkistrodon contortrix contortrix, UniProt P28891); assay: biochemical; format: biochemical, Southern Copperhead snake (A.c. contortrix)
# [6] = system: purified human plasminogen; assay: Plasminogen activation measured by S-2251 hydrolysis; format: biochemical; conditions: aliquots of the venom enzyme-plasminogen mixture treated with streptokinase
# [7] = system: autologous or human clots; assay: Streptokinase regimens in animal clot models; format: in vivo, dogs, pigs, and rabbits; conditions: increasing the rate of streptokinase infusion
# fibrinolytic enzyme from Southern Copperhead venom, sequence (P28891 whole entry, looked up): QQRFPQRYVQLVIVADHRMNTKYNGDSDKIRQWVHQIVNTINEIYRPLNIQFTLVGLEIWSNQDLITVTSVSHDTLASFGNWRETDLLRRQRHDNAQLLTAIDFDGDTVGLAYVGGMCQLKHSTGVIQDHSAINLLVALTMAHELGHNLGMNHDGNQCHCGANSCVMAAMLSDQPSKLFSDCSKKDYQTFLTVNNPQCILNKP
molecule,measurement,setting,value
plasmin,Plasma clot lysis,[1],did not lyse
same,Plasma clot lysis,[2],did not lyse
same,Fibrin clot lysis in plasma clotted with thrombin,[3],no fibrin clot lysis
same,Plasmin activity,[4],30-35 units per mg
c1cnc2c(c1)ccc1cccnc12 [o-phenanthroline],Inhibition of the venom fibrinolytic enzyme (in words),[5],inhibited
O=C(O)CN(CCN(CC(=O)O)CC(=O)O)CC(=O)O [EDTA],Inhibition of the venom fibrinolytic enzyme (in words),[5],inhibited
same,inhibition at 50000 µM,[5]; read-out: Inhibition of Azocaseinolytic Activity,92%
O=C(O)c1cc[c]([Hg][Cl])cc1 [p-Chloromercuribenzoate],Inhibition of the venom fibrinolytic enzyme (in words),[5],not inhibited
streptokinase,S-2251 hydrolyzing activity (plasmin formed),[6],hydrolyzing activity was generated
same,Acceleration of clot lysis,[7],ineffective in significantly accelerating clot lysis
α2 -Macroglobulin,Inhibition of Azocaseinolytic Activity,[5],95%
same,Inhibition of the venom fibrinolytic enzyme (in words),[5],inhibits
